Experimental data from patent US20260248820A1, “USES OF HYDROGENATED CANNABIDIOL (H4CBD) AND ADVANCED METABOLIC SYNDROME” (The Regents of the University of California, priority 2022, published 2026).
“Also recorded” adds a separate entry of the source.

Experiments:
[1] = system: Otsuka Long-Evans Tokushima Fatty (OLETF) rat; assay: Liver triglyceride content; format: in vivo; details: p<0.05
[2] = system: proteins involved in fatty acid uptake, metabolism and storage (liver); assay: Western blot of liver proteins involved in fatty acid uptake, metabolism and storage; format: in vivo, rat
Excerpt: Western Blot—Liver was used to measure proteins involved in fatty acid uptake, metabolism and storage. Densitometry values were quantified using ImageJ software (NIH) and normalized by correcting for densitometry values of representative protein bands below 37 kDa stained with Ponceau S. Results are reported as expression (%) compared to LETO.

[3] = system: Otsuka Long-Evans Tokushima Fatty (OLETF) rat; assay: End of study fasting blood/plasma measurements (glucose, hormones, lipids, RAAS peptides); format: in vivo; design: Plasma AngII higher than OLETF control / Plasma Ang 1-7 higher than OLETF control / Plasma aldosterone higher than OLETF control / Reduction of fasting insulin to glucagon ratio compared to OLETF / Reduction of circulating adiponectin compared to OLETF / Reduction of leptin compared to OLETF: concentration or dose not given beside the values
Excerpt: Tissue Collection—After the 4-week study and 3 days following the OGTT, animals were fasted overnight and tissues were collected the following morning.
Statistics—All values are represented as mean #standard error mean (SEM) unless otherwise indicated. Means were compared by one-way ANOVA followed by Tukey's honest significant difference or unpaired, one-tailed t-test to assess significant differences among groups. Means and regressions were considered significant at p<0.05. Outliers were detected by ROUT (Q=1.0%) and removed; however, it should be noted that this was necessary for only 12 occurrences. All statistical procedures, including Pearson r correlations, were performed using GraphPad Prism 9.3.1 (GraphPad Software, Inc., San Diego, CA, USA).
Tissue Collection—After the 4-week study period, animals were fasted overnight, and tissues were collected at sacrifice the following morning. BM was recorded before animals were decapitated and trunk blood was collected.
Plasma Analysis—Plasma concentrations of adiponectin (Millipore Sigma; EZRADP-62K), aldosterone (R&D Systems; KGE016), angiotensin 1-7 (Phoenix Pharmaceuticals; EKE-002-01), angiotensin II (Phoenix Pharmaceuticals; EK-002-12CE), corticosterone (R&D Systems; KGE009), ghrelin (Sigma Aldrich; RAB0207), glucagon (Crystal Chemicals; 81519), leptin (Millipore Sigma; EZRL-83K), non-esterified fatty acid (NEFA) (Wako Chemicals) and triglycerides (Cayman Chemical; 10010303) were measured in fasted, end of study plasma samples. All samples were analyzed in duplicate and run in a single assay with intra-assay and percent CV of <10% for all assays.

[4] = Drug bioavailability detection in heparinized plasma (HPLC, MS/MS); format: in vivo, rat; details: peak area count <1500 considered negative, 200 mg/kg oral gavage
Method: Drug Bioavailability Detection—H4CBD bioavailability in heparinized plasma was determined via HPLC and MS/MS. In brief, 100 μL heparinized rat plasma was diluted with 100 μL Mass Spec Gold human serum (Golden West Diagnostics, MSG3200). The samples were analyzed using a WATERS TQS-Micro. The first quadrupole was set to 319.16 m/z and the third quadrupole isolated fragments of 181.02 m/z.
Drug Bioavailability Detection—H4CBD bioavailability in heparinized plasma was determined via HPLC and MS chromatography.

[5] = system: Otsuka Long-Evans Tokushima Fatty (OLETF) rat; assay: Observation of treated animals during dosing window; format: in vivo; details: all treated animals, regardless of dose frequency relaxation
[6] = system: Otsuka Long-Evans Tokushima Fatty (OLETF) rat; assay: Urinalysis (urine volume, total protein, creatinine, 3-methylhistidine); format: in vivo
Method: Body Mass (BM), Water, and Food Intake—BM was measured daily to calculate the appropriate drug and vehicle dose. Water, urine and food were measured once every 24 hours throughout the study.
Urinalysis—Urine was collected and thawed on ice to measure 3-methylhistidine (3MH; Abbexa; 257295) and creatinine (Invitrogen; EIACUN). Excretion was calculated for both by multiplying the 24-hr urine volume by the measured concentration (U×V=V*[x]), where x=creatinine or 3MH.

[7] = H4CBD-treated OLETF rats, end of study fasting, mean ± SEM
[8] = H4CBD-treated OLETF rats, end of study, mean ± SEM

SMILES: CCCCCc1cc(O)c(C2CC(C)CCC2C(C)C)c(O)c1 (stereo not shown) [H4CBD, 2-(2-isopropyl-5-methylcyclohexyl)-5-pentylbenzene-1,3-diol]
- Reduction of liver triglyceride content [1]: 28%
- Downstream signaling proteins GPAM, DGAT1, CPTIA, ACOX1, ApoB and PRDX6 ([2]; data not shown): comparable between groups
- FATP5 expression ([2]; increased 109% in OLETF vs LETO): not effected
- Increase of FATP2 expression ([2]; p<0.05): 60%
- Rescue (increase) of CD36 expression ([2]; p<0.05): 48%
- Fasting blood glucose higher than LETO ([3]; 45 weeks of age, p<0.0001): 2.2 fold
- Fasting blood glucose higher than OLETF ([3]; 45 weeks of age, p<0.01): 56%
- Glucose:Insulin (mmol/μIU × 10^4) [3, 7]: 10.9 ± 1.1^ mmol/μIU × 10^4
- Insulin:Glucagon (μIU/pg) [3, 7]: 0.6 ± 0.0^ μIU/pg
- Fasting glucagon [3, 8]: 19.4 ± 9.4 pg/mL
- Fasting insulin (μIU/mL) [3, 8]: 13.9 ± 0.4^# μIU/mL
- Fasting blood glucose (mmol/L) ([3]; H4CBD-treated OLETF rats, end of study, mean ± SEM, n = 8): 15.8 ± 1.9^†£ mmol/L
- Fasted plasma NEFA ([3]; LETO, OLETF, H4CBD): not different among groups
- Increase of fasting plasma insulin over OLETF ([3]; end of study): 10%
- Plasma glucagon, OLETF versus H4CBD ([3]; end of study fasting): not different
- Plasma Ang 1-7 higher than OLETF control ([3]; end of study plasma): 26%
- Plasma AngII higher than OLETF control ([3]; end of study plasma): 24%
- Plasma aldosterone higher than OLETF control ([3]; end of study plasma, p=0.052): 150%
- Plasma corticosterone ([3]; fasting plasma, LETO, OLETF, H4CBD): comparable amongst the groups
- Plasma ghrelin greater than the other groups ([3]; fasting plasma, p<0.01 vs OLETF, p<0.05 vs LETO): 75%
- Reduction of circulating adiponectin compared to OLETF ([3]; fasting plasma, p<0.05): 40%
- Reduction of leptin compared to OLETF ([3]; fasting plasma, p<0.05): 47%
- Leptin:adiponectin ratio ([3]; fasting plasma, ratio 30% lower in OLETF than LETO): did not modulate the ratio further
- Fasted plasma TG ([3]; p<0.0001 OLETF vs. H4CBD, TG 147% higher in OLETF than LETO): reduced fasted plasma TG to LETO control levels
- Increase of fasting glucose to insulin ratio compared to OLETF ([3]; p<0.05): 47%
- Reduction of fasting insulin to glucagon ratio compared to OLETF ([3]; p<0.05): 64%
- H4CBD in end of study plasma [4]: only treated animals received drug; also recorded: only detected in plasma from treated rats
- Stool observation [5]: soft stool at multiple points of the dosing window
- Urine excretion compared to vehicle control, first week ([6]; 24-hour urine): reduced
- Urine excretion volume compared to OLETF control, remainder of study ([6]; 24-hour urine, persisted through the remainder of the study): increased above OLETF control by Day 11
- Increase of 3MH excretion pre- vs. post-treatment ([6]; Day 0 vs Day 28): 9%
- 3MH excretion less than OLETF control ([6]; after 4 weeks): 17%
- Reduction of creatinine excretion compared to OLETF control ([6]; after 4 weeks): 42%
- Increase of creatinine excretion within H4CBD-treated group ([6]; after 4 weeks of treatment vs Day 0, non-significant): 10%
- 3MH/Cr higher than OLETF control ([6]; post-treatment (Day 28), p=0.07): 77%
- Reduction of proteinuria compared to OLETF control ([6]; total urinary protein excretion after 4 weeks): 25%
- Increase of 3MH/Cr after 4 weeks ([6]; within H4CBD treated OLETF, muscle wasting index): 4%
